The source of these data is patent publication US10336774B2, “N-azaspirocycloalkane substituted N-heteroaryl compounds and compositions for inhibiting the activity of SHP2” (NOVARTIS AG, priority 2014, dated 2019).

Molecules are shown by their SMILES.

For this test, the target named is SHP2 (Homo sapiens (Human), UniProt Q06124). The experiment in a line: SHP2 Allosteric Inhibition Assay. It counts as biochemical. The settings on record: 0.5 nM SHP2 activated with 0.5 μM peptide IRS1_pY1172(dPEG8)pY1222, surrogate substrate DiFMUP, fluorescence. The text has this: SHP2 Allosteric Inhibition Assay SHP2 is allosterically activated through binding of bis-tyrosyl-phorphorylated peptides to its Src Homology 2 (SH2) domains. The latter activation step leads to the release of the auto-inhibitory interface of SHP2, which in turn renders the SHP2 protein tyrosine phosphatase (PTP) active and available for substrate recognition and reaction catalysis. The catalytic activity of SHP2 was monitored using the surrogate substrate DiFMUP in a prompt fluorescence assay format. […] After 30-60 minutes incubation at 25° C., the surrogate substrate DiFMUP (Invitrogen, cat# D6567) was added to the reaction and incubated at 25° C. for 30 minutes. […] The inhibitor dose response curves were analyzed using normalized IC50 regression curve fitting with control based normalization.
Sequence of SHP2 (Q06124 whole entry): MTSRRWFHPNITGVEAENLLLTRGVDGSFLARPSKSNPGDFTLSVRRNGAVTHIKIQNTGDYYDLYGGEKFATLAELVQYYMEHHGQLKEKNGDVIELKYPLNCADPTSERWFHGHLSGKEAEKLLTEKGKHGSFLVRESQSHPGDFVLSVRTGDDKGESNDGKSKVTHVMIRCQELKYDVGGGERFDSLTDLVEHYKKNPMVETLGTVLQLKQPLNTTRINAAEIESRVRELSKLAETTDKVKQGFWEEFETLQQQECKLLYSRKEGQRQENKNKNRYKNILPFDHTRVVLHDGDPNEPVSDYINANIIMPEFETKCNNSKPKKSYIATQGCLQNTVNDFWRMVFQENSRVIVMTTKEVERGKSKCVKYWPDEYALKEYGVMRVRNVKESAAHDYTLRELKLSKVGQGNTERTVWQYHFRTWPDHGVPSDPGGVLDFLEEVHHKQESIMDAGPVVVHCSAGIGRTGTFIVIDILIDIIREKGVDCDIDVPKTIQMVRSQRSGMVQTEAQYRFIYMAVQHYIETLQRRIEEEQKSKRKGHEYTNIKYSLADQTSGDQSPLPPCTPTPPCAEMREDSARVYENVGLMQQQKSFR
`Nc1nc(N2CC3(CCC3N)C2)cnc1Sc1cccc(Cl)c1Cl` (racemic) [Example 8, 2-(6-amino-5-((2,3-dichlorophenyl)thio)pyrazin-2-yl)-2-azaspiro[3.3]heptan-5-amine]: half-maximal inhibition (IC50) was put at 5360 nM.

`Nc1nc(N2CCC3(CCC3N)CC2)cnc1Sc1cccc(Cl)c1Cl` (racemic) [Example 14, 7-(6-amino-5-((2,3-dichlorophenyl)thio)pyrazin-2-yl)-7-azaspiro[3.5]nonan-1-amine]: inhibition was half-maximal at 56 nM (IC50).

On to `Nc1nc(N2CCC3(CC2)CCC(F)(F)C3N)cnc1Sc1cccnc1C(F)(F)F` (racemic) [Example 82, racemic-8-(6-amino-5-((2-(trifluoromethyl)pyridin-3-yl)thio)pyrazin-2-yl)-2,2-difluoro-8-azaspiro[4.5]decan-1-amine], for which the IC50 (commonly the concentration that gives 50% inhibition) turned out to be 380 nM.

Compound `Nc1nc(N2CCC3(CC2)CCC(F)(F)[C@@H]3N)cnc1Sc1cccnc1C(F)(F)F` (racemic) [Example 83a, (R) and (S)-8-(6-amino-5-((2-(trifluoromethyl)pyridin-3-yl)thio)pyrazin-2-yl)-2,2-difluoro-8-azaspiro[4.5]decan-1-amine] yielded an IC50 of 882 nM.

Turning to `Nc1nc(N2CCC3(CC2)CCC(F)(F)[C@@H]3N)cnc1Sc1cccnc1C(F)(F)F` (racemic) [Example 83b, (R) and (S)-8-(6-amino-5-((2-(trifluoromethyl)pyridin-3-yl)thio)pyrazin-2-yl)-2,2-difluoro-8-azaspiro[4.5]decan-1-amine], the IC50 was found to be 306 nM.

`C[C@H]1CCC2(CCN(c3cnc(Sc4cccnc4C(F)(F)F)c(N)n3)CC2)[C@@H]1N` (single isomer, unassigned) [Example 86a]: the 50% inhibitory concentration (IC50) worked out at 10 nM.

Compound `C[C@@H]1CCC2(CCN(c3cnc(Sc4cccnc4C(F)(F)F)c(N)n3)CC2)[C@@H]1N` (single isomer, unassigned) [Example 86b] had an IC50 of 10 nM.

The compound `NC(=O)c1nc(Sc2cccnc2C(F)(F)F)c(N)nc1N1CCC2(CCCC2N)CC1` (stereo in doubt) [Example 21, (S)-5-amino-3-(1-amino-8-azaspiro[4.5]decan-8-yl)-6-((2-(trifluoromethyl)pyridin-3-yl)thio)pyrazine-2-carboxamide] yielded an IC50 of 10 nM.

Take `Nc1nc(N2CCC3(CCCC3N)CC2)nnc1Sc1cccnc1C(F)(F)F` (stereo in doubt) [Example 23, (S)-8-(5-amino-6-((2-(trifluoromethyl)pyridin-3-yl)thio)-1,2,4-triazin-3-yl)-8-azaspiro[4.5]decan-1-amine]: half-maximal inhibition (IC50) required 290 nM.

Turning to `Nc1nc(N2CCC3(CCCC3N)CC2)cnc1Sc1cccc(Cl)c1Cl` (centres unmarked) [Example 2], the IC50 was found to be 25 nM.

Compound `Nc1nc(N2CCC3(CCC[C@H]3N)CC2)cnc1Sc1cccc(Cl)c1Cl` [Example 3] gave an IC50 of 10 nM.

Consider `Nc1nc(N2CCC3(CCCCC3N)CC2)cnc1Sc1cccc(Cl)c1Cl` (centres unmarked) [Example 4], for which the half-maximal inhibitory concentration (IC50) was 32 nM.

`Nc1nc(N2CCC3(CC2)OCC[C@H]3N)cnc1Sc1cccnc1C(F)(F)F` [Example 5] returned an IC50 of 349 nM.

For `Nc1nc(N2CCC3(CCCCC3N)CC2)cnc1-c1cccc(Cl)c1Cl` (centres unmarked) [Example 6], the IC50 was 74 nM.

`Nc1nc(N2CCC3(CCCC3N)CC2)cnc1-c1cccc(Cl)c1Cl` (centres unmarked) [Example 7] displayed an IC50 of 73 nM.

In turn, `Nc1nc(N2CC3(CCC3N)C2)cnc1-c1cccc(Cl)c1Cl` (centres unmarked) [Example 9] had an IC50 of 1110 nM.

Compound `Nc1cccc(Sc2ncc(N3CCC4(CC[C@@H]4N)CC3)nc2N)c1Cl` [Example 15] gave an IC50 of 16 nM.

As to `Nc1nc(N2CCC3(CCC3N)CC2)cnc1-c1cccc(Cl)c1Cl` (centres unmarked) [Example 16], the IC50 was found to be 145 nM.

`Nc1nc(N2CCC3(CC2)C(N)CCS3(=O)=O)cnc1-c1cccc(Cl)c1Cl` (centres unmarked) [Example 18]: the concentration for half-maximal inhibition (IC50) is 3550 nM.

Turning to `Nc1nc(N2CCC3(CC2)C(N)CCS3(=O)=O)cnc1Sc1cccc(Cl)c1Cl` (centres unmarked) [Example 19], it took 4090 nM to reach half-maximal inhibition (IC50).

`Nc1nc(N2CCC3(CC[C@@H]3N)CC2)cnc1Sc1cccnc1C(F)(F)F` [Example 20, (S)-7-(6-amino-5-((2-(trifluoromethyl)pyridin-3-yl)thio)pyrazin-2-yl)-7-azaspiro[3.5]nonan-1-amine]: 38 nM corresponded to half-maximal inhibition (IC50).

`NC(=O)c1nc(Sc2cccnc2C(F)(F)F)c(N)nc1N1CCC2(CC[C@@H]2N)CC1` [Example 22] showed an IC50 of 53 nM.

As to `Nc1nc(N2CCC3(CCC[C@@H]3N)CC2)ncc1Sc1cccnc1C(F)(F)F` [Example 24, (S)-8-(4-amino-5-((2-(trifluoromethyl)pyridin-3-yl)thio)pyrimidin-2-yl)-8-azaspiro[4.5]decan-1-amine], the IC50 amounted to 2780 nM.

As to `NC(=O)c1nc(Sc2ccnc(C(F)(F)F)c2Cl)c(N)nc1N1CCC2(CCC[C@H]2N)CC1` [Example 25, (R)-5-amino-3-(1-amino-8-azaspiro[4.5]decan-8-yl)-6-((3-chloro-2-(trifluoromethyl)pyridin-4-yl)thio)pyrazine-2-carboxamide], 58 nM corresponded to half-maximal inhibition (IC50).

As to `Nc1nc(N2CCC3(CCC[C@H]3N)CC2)cnc1Sc1ccnc(N)c1Cl` [Example 26, (R)-8-(6-amino-5-((2-amino-3-chloropyridin-4-yl)thio)pyrazin-2-yl)-8-azaspiro[4.5]decan-1-amine], half-maximal inhibition (IC50) required 14 nM.

`Nc1nc(N2CCC3(CC[C@@H]3N)CC2)cnc1Sc1ccnc(N)c1Cl` [Example 27] yielded an IC50 of 42 nM.

With `Nc1nc(N2CCC3(CCC[C@H]3N)CC2)cnc1Sc1ccncc1Cl` [Example 28, (R)-8-(6-amino-5-((3-chloropyridin-4-yl)thio)pyrazin-2-yl)-8-azaspiro[4.5]decan-1-amine], the half-inhibitory concentration (IC50) amounted to 23 nM.

In turn, `Nc1nc(N2CCC3(CCC[C@H]3N)CC2)cnc1Sc1cccnc1Cl` [Example 29, (R)-8-(6-amino-5-((2-chloropyridin-3-yl)thio)pyrazin-2-yl)-8-azaspiro[4.5]decan-1-amine] gave an IC50 of 15 nM.

Regarding `Nc1nc(N2CCC3(CCC[C@H]3N)CC2)cnc1Sc1ccnc(Cl)c1Cl` [Example 30, (R)-8-(6-amino-5-((2,3-dichloropyridin-4-yl)thio)pyrazin-2-yl)-8-azaspiro[4.5]decan-1-amine], the IC50 was 3 nM.

As to `Nc1nc(N2CCC3(CC[C@@H]3N)CC2)cnc1Sc1ccnc(Cl)c1Cl` [Example 31, (S)-7-(6-amino-5-((2,3-dichloropyridin-4-yl)thio)pyrazin-2-yl)-7-azaspiro[3.5]nonan-1-amine], the IC50 came to 28 nM.

Regarding `Nc1cccc(Sc2ncc(N3CCC4(CCC[C@H]4N)CC3)nc2N)c1Cl` [Example 32, (R)-8-(6-amino-5-((3-amino-2-chlorophenyl)thio)pyrazin-2-yl)-8-azaspiro[4.5]decan-1-amine], it took 11 nM to reach half-maximal inhibition (IC50).

With `Nc1nc(N2CCC3(CCC[C@H]3N)CC2)cnc1Sc1ccnc(F)c1Cl` [Example 33, (R)-8-(6-amino-5-((3-chloro-2-fluoropyridin-4-yl)thio)pyrazin-2-yl)-8-azaspiro[4.5]decan-1-amine], inhibition was half-maximal at 5 nM (IC50).

As for `NC1=NCCC12CCN(c1cnc(Sc3cccnc3C(F)(F)F)c(N)n1)CC2` [Example 34, 8-(6-amino-5-((2-(trifluoromethyl)pyridin-3-yl)thio)pyrazin-2-yl)-2,8-diazaspiro[4.5]dec-1-en-1-amine], the IC50 was determined as 32 nM.

The compound `Nc1nc(N2CCC3(CC2)OCCC3N)cnc1Sc1cccnc1C(F)(F)F` (centres unmarked) [Example 35] returned an IC50 of 232 nM.

In turn, `NC(=O)c1cc(Sc2cccnc2C(F)(F)F)c(N)nc1N1CCC2(CCC[C@H]2N)CC1` [Example 39, (R)-6-amino-2-(1-amino-8-azaspiro[4.5]decan-8-yl)-5-((2-(trifluoromethyl)pyridin-3-yl)thio)nicotinamide] had a concentration for half-maximal inhibition (IC50) of 118 nM.

With `NC(=O)c1cccc(Sc2ncc(N3CCC4(CCC[C@H]4N)CC3)nc2N)c1Cl` [Example 40, (R)-3-((3-amino-5-(1-amino-8-azaspiro[4.5]decan-8-yl)pyrazin-2-yl)thio)-2-chlorobenzamide], the IC50 turned out to be 16 nM.

In turn, `Nc1nc(N2CCC3(CC2)C[C@@H](O)C[C@H]3N)cnc1Sc1ccnc(N)c1Cl` [Example 41, (2R,4R)-4-amino-8-(6-amino-5-((2-amino-3-chloropyridin-4-yl)thio)pyrazin-2-yl)-8-azaspiro[4.5]decan-2-ol] came in with an IC50 of 7 nM.

`Nc1nc(N2CCC3(CC2)C[C@@H](O)C[C@H]3N)cnc1Sc1cccnc1C(F)(F)F` [Example 42] gave an IC50 of 7 nM.

Regarding `Nc1nc(N2CCC3(CC2)C[C@H](O)C[C@H]3N)cnc1Sc1cccnc1C(F)(F)F` [Example 43], half-maximal inhibition (IC50) was put at 6 nM.

In the case of `Nc1nc(N2CCC3(CC2)C[C@@H](O)C[C@@H]3N)cnc1Sc1cccnc1C(F)(F)F` [Example 44], the IC50 is 135 nM.

Take `CO[C@@H]1C[C@@H](N)C2(CCN(c3cnc(Sc4ccnc(N)c4Cl)c(N)n3)CC2)C1` [Example 45]: the midpoint of inhibition, the IC50, lay at 44 nM.

In the case of `CO[C@@H]1C[C@@H](N)C2(CCN(c3cnc(Sc4ccnc(Cl)c4Cl)c(N)n3)CC2)C1` [Example 46], the IC50 was found to be 38 nM.

`Nc1nc(N2CCC3(CC2)CC(F)(F)CC3N)cnc1Sc1cccnc1C(F)(F)F` (centres unmarked) [Example 47] showed an IC50 of 21 nM.

`CO[C@H]1C[C@@H](N)C2(CCN(c3cnc(Sc4cccnc4C(F)(F)F)c(N)n3)CC2)C1` [Example 48]: the IC50 amounted to 9 nM.

`CN[C@@H]1C[C@H](O)CC12CCN(c1cnc(Sc3cccnc3C(F)(F)F)c(N)n1)CC2` [Example 49] came in with an IC50 of 234 nM.

Take `NC1=NC(=O)CC12CCN(c1cnc(Sc3cccnc3C(F)(F)F)c(N)n1)CC2` [Example 50]: the IC50 came to 610 nM.

In turn, `Nc1cc(Sc2ncc(N3CCC4(CCC[C@H]4N)CC3)nc2N)c(Cl)cn1` [Example 51] had an IC50 of 10 nM.
